target: T1, Glycogen phosphorylase, muscle form (Oryctolagus cuniculus, UniProt P00489); experiment: Inhibition of rabbit muscle glycogen phosphorylase b
T1 sequence (P00489 whole entry): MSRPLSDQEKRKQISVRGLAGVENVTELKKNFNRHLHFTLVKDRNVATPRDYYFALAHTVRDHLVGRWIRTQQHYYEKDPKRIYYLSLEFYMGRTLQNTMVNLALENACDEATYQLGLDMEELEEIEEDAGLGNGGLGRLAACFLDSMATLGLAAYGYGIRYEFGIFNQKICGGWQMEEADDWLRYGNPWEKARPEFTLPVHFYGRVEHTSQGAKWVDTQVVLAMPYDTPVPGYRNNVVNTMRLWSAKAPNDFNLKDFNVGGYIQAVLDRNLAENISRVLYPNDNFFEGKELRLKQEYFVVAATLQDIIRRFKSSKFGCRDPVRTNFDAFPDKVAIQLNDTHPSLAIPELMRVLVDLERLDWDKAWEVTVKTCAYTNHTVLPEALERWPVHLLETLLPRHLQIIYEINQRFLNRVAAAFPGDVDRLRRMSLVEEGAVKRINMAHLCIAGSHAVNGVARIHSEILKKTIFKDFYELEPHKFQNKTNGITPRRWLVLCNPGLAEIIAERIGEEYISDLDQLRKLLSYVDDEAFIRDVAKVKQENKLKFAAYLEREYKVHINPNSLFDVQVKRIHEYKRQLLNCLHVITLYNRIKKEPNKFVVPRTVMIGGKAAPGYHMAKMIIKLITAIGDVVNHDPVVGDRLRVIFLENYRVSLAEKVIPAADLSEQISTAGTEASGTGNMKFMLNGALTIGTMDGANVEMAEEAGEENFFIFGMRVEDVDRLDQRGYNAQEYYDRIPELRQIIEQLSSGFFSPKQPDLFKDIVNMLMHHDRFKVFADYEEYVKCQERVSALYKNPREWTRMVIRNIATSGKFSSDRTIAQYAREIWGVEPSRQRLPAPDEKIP

Compound | Ki [µM]
CC(=O)NN1C(=O)N[C@@]2(O[C@H](CO)[C@@H](O)[C@H](O)[C@H]2O)C1=O | 550
O=C1NCC(O)NC12O[C@H](CO)[C@@H](O)[C@H](O)[C@H]2O (some centres undefined) | 59.7
CN1C(=O)N[C@@]2(O[C@H](CO)[C@@H](O)[C@H](O)[C@H]2O)C1=O | 1200
NN1C(=O)N[C@@]2(O[C@H](CO)[C@@H](O)[C@H](O)[C@H]2O)C1=O | 146
O=C1NC(=O)[C@@]2(N1)OC[C@@H](O)[C@H](O)[C@H]2O | > 11500
O=C1NC(=O)[C@@]2(C[C@H](O)[C@@H]([C@@H](O)CO)O2)N1 | 8200
O=C1NC(=O)[C@]2(C[C@H](O)[C@@H]([C@@H](O)CO)O2)N1 | 220000
O=C1NC(=S)N[C@@]12OC[C@@H](O)[C@H](O)[C@H]2O | > 10000
O=C1N[C@@]2(O[C@H](CO)[C@@H](O)[C@H](O)[C@H]2O)C(=O)N1O | 39

Source: ChEMBL document CHEMBL1152626, “Glucose-based spiro-isoxazolines: a new family of potent glycogen phosphorylase inhibitors” (Bioorg Med Chem, 2009)
